Source: PubChem BioAssay AID2060488 (Molecular Pharmacology Branch, DTP, NCI, 2025)
pIC50: −log10 of the molar value.

Test system: 966289-007-R4-J1-PDC complex spheroid viability
Assay: Anticancer human tumor 966289-007-R4-J1-PDC patient-derived pancreatic adenocarcinoma cell line growth inhibition [GQUAD]
Details: for pIC50: curve of first compound; for viability, T/C: stronger effect = lower value
Procedure, shortened: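 Multi-cell-type spheroids of tumor cells with HUVEC and mesenchymal stem cells, treated with drug combinations. Concentrations descend in half-log steps from near clinical Cmax, or from 10 microM where Cmax is unknown; viability read-out.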

[1] = second compound 0.0316 µM, first compound 0.000999 µM
[2] = second compound 0.0316 µM, first compound 0.00316 µM
[3] = second compound 0.0316 µM, first compound 0.00999 µM
[4] = second compound 0.0316 µM, first compound 0.0316 µM
[5] = second compound 0.0316 µM, first compound 0.0999 µM
[6] = second compound 0.0316 µM, first compound 0.316 µM
[7] = second compound 0.1 µM, first compound 0.000999 µM
[8] = second compound 0.1 µM, first compound 0.00316 µM
[9] = second compound 0.1 µM, first compound 0.00999 µM
[10] = second compound 0.1 µM, first compound 0.0316 µM
[11] = second compound 0.1 µM, first compound 0.0999 µM
[12] = second compound 0.1 µM, first compound 0.316 µM
[13] = second compound 0.316 µM, first compound 0.000999 µM
[14] = second compound 0.316 µM, first compound 0.00316 µM
[15] = second compound 0.316 µM, first compound 0.00999 µM
[16] = second compound 0.316 µM, first compound 0.0316 µM
[17] = second compound 0.316 µM, first compound 0.0999 µM
[18] = second compound 0.316 µM, first compound 0.316 µM
[19] = second compound 1 µM, first compound 0.000999 µM
[20] = second compound 1 µM, first compound 0.00316 µM
[21] = second compound 1 µM, first compound 0.00999 µM
[22] = second compound 1 µM, first compound 0.0316 µM
[23] = second compound 1 µM, first compound 0.0999 µM
[24] = second compound 1 µM, first compound 0.316 µM
[25] = second compound 3.16 µM, first compound 0.000999 µM
[26] = second compound 3.16 µM, first compound 0.00316 µM
[27] = second compound 3.16 µM, first compound 0.00999 µM
[28] = second compound 3.16 µM, first compound 0.0316 µM
[29] = second compound 3.16 µM, first compound 0.0999 µM
[30] = second compound 3.16 µM, first compound 0.316 µM
[31] = second compound 10 µM, first compound 0.000999 µM
[32] = second compound 10 µM, first compound 0.00316 µM
[33] = second compound 10 µM, first compound 0.00999 µM
[34] = second compound 10 µM, first compound 0.0316 µM
[35] = second compound 10 µM, first compound 0.0999 µM
[36] = second compound 10 µM, first compound 0.316 µM
[37] = second compound 0.0316 µM, first compound 0.1 µM
[38] = second compound 0.0316 µM, first compound 1 µM
[39] = second compound 0.0316 µM, first compound 3.16 µM
[40] = second compound 0.0316 µM, first compound 10 µM
[41] = second compound 0.1 µM, first compound 0.1 µM
[42] = second compound 0.1 µM, first compound 1 µM
[43] = second compound 0.1 µM, first compound 3.16 µM
[44] = second compound 0.1 µM, first compound 10 µM
[45] = second compound 0.316 µM, first compound 0.1 µM
[46] = second compound 0.316 µM, first compound 1 µM
[47] = second compound 0.316 µM, first compound 3.16 µM
[48] = second compound 0.316 µM, first compound 10 µM
[49] = second compound 1 µM, first compound 0.1 µM
[50] = second compound 1 µM, first compound 1 µM
[51] = second compound 1 µM, first compound 3.16 µM
[52] = second compound 1 µM, first compound 10 µM
[53] = second compound 3.16 µM, first compound 0.1 µM
[54] = second compound 3.16 µM, first compound 1 µM
[55] = second compound 3.16 µM, first compound 3.16 µM
[56] = second compound 3.16 µM, first compound 10 µM
[57] = second compound 10 µM, first compound 0.1 µM
[58] = second compound 10 µM, first compound 1 µM
[59] = second compound 10 µM, first compound 3.16 µM
[60] = second compound 10 µM, first compound 10 µM
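Further: spheroids exposed to the agents for seven days before readout.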
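Wherever viability, T/C is given: percent viability relative to DMSO vehicle control wells taken as 100%.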

CC[C@@]1(O)C(=O)OCc2c1cc1n(c2=O)Cc2cc3c(CN(C)C)c(O)ccc3nc2-1 + Cc1[nH]c2ccc(F)cc2c1-c1nc2c3cccnc3c3ncccc3c2[nH]1
pIC50 (second compound 0.0316 µM): 7.35
pIC50 (second compound 0.1 µM): 7.32
pIC50 (second compound 0.316 µM): 7.30
pIC50 (second compound 1 µM): 7.31
pIC50 (second compound 3.16 µM): 7.43
pIC50 (second compound 10 µM): 7.59
viability, T/C [1]: 102%
viability, T/C [2]: 94.6%
viability, T/C [3]: 90.2%
viability, T/C [4]: 70.8%
viability, T/C [5]: 0.88%
viability, T/C [6]: 0.48%
viability, T/C [7]: 99.3%
viability, T/C [8]: 101%
viability, T/C [9]: 101%
viability, T/C [10]: 78.2%
viability, T/C [11]: 0.6%
viability, T/C [12]: 0.5%
viability, T/C [13]: 94.1%
viability, T/C [14]: 105%
viability, T/C [15]: 110%
viability, T/C [16]: 83.1%
viability, T/C [17]: 0.88%
viability, T/C [18]: 0.49%
viability, T/C [19]: 92.4%
viability, T/C [20]: 95%
viability, T/C [21]: 106%
viability, T/C [22]: 80.9%
viability, T/C [23]: 0.78%
viability, T/C [24]: 0.62%
viability, T/C [25]: 105%
viability, T/C [26]: 113%
viability, T/C [27]: 115%
viability, T/C [28]: 57.7%
viability, T/C [29]: 0.9%
viability, T/C [30]: 0.56%
viability, T/C [31]: 105%
viability, T/C [32]: 106%
viability, T/C [33]: 108%
viability, T/C [34]: 38.2%
viability, T/C [35]: 0.71%
viability, T/C [36]: 0.5%

CCc1c2c(nc3ccc(O)cc13)-c1cc3c(c(=O)n1C2)COC(=O)[C@]3(O)CC + Cc1cnc(CNC(=O)c2c(=O)c3ccc(N4CCCN(C)CC4)nc3n3c2sc2ccccc23)cn1
pIC50 (second compound 0.0316 µM): > 9.00
pIC50 (second compound 0.1 µM): > 9.00
pIC50 (second compound 0.316 µM): > 9.00
pIC50 (second compound 1 µM): > 9.00
pIC50 (second compound 3.16 µM): > 9.00
pIC50 (second compound 10 µM): > 9.00
viability, T/C [1]: 5.02%
viability, T/C [2]: 0.7%
viability, T/C [3]: 0.49%
viability, T/C [4]: 0.4%
viability, T/C [5]: 0.35%
viability, T/C [6]: 0.36%
viability, T/C [7]: 2.67%
viability, T/C [8]: 0.71%
viability, T/C [9]: 1.06%
viability, T/C [10]: 0.42%
viability, T/C [11]: 0.35%
viability, T/C [12]: 0.46%
viability, T/C [13]: 2.26%
viability, T/C [14]: 0.87%
viability, T/C [15]: 0.52%
viability, T/C [16]: 0.5%
viability, T/C [17]: 0.79%
viability, T/C [18]: 0.41%
viability, T/C [19]: 1.23%
viability, T/C [20]: 0.79%
viability, T/C [21]: 0.82%
viability, T/C [22]: 0.08%
viability, T/C [23]: 0.63%
viability, T/C [24]: 0.12%
viability, T/C [25]: 0.43%
viability, T/C [26]: 0.09%
viability, T/C [27]: 0.06%
viability, T/C [28]: 0.05%
viability, T/C [29]: 0.12%
viability, T/C [30]: 0.09%
viability, T/C [31]: 0.03%
viability, T/C [32]: 0.07%
viability, T/C [33]: 0.08%
viability, T/C [34]: 0.07%
viability, T/C [35]: 1.27%
viability, T/C [36]: 0.1%

C=CC(=O)N1CCN(c2nc(=O)n(-c3c(C)ccnc3C(C)C)c3nc(-c4c(O)cccc4F)c(F)cc23)C(C)C1 (stereo not drawn) + CN(C)c1ccc(Nc2c3ccc(NC(=O)CCN4CCCC4)cc3nc3cc(NC(=O)CCN4CCCC4)ccc23)cc1
pIC50 (second compound 0.0316 µM): < 5.00
pIC50 (second compound 0.1 µM): < 5.00
pIC50 (second compound 0.316 µM): < 5.00
pIC50 (second compound 1 µM): < 5.00
pIC50 (second compound 3.16 µM): < 5.00
pIC50 (second compound 10 µM): 5.17
viability, T/C [4]: 107%
viability, T/C [37]: 99.6%
viability, T/C [6]: 106%
viability, T/C [38]: 100%
viability, T/C [39]: 106%
viability, T/C [40]: 110%
viability, T/C [10]: 101%
viability, T/C [41]: 105%
viability, T/C [12]: 105%
viability, T/C [42]: 104%
viability, T/C [43]: 102%
viability, T/C [44]: 113%
viability, T/C [16]: 96%
viability, T/C [45]: 104%
viability, T/C [18]: 106%
viability, T/C [46]: 102%
viability, T/C [47]: 97.1%
viability, T/C [48]: 111%
viability, T/C [22]: 94.3%
viability, T/C [49]: 99.8%
viability, T/C [24]: 102%
viability, T/C [50]: 94.8%
viability, T/C [51]: 108%
viability, T/C [52]: 108%
viability, T/C [28]: 99.6%
viability, T/C [53]: 101%
viability, T/C [30]: 107%
viability, T/C [54]: 105%
viability, T/C [55]: 106%
viability, T/C [56]: 111%
viability, T/C [34]: 105%
viability, T/C [57]: 101%
viability, T/C [36]: 108%
viability, T/C [58]: 105%
viability, T/C [59]: 106%
viability, T/C [60]: 21.7%

CC(C)n1c(=O)n(C)c2cnc3cc(F)c(-c4ccc(OCCCN5CCCCC5)nc4)cc3c21 + CN(C)c1ccc(Nc2c3ccc(NC(=O)CCN4CCCC4)cc3nc3cc(NC(=O)CCN4CCCC4)ccc23)cc1
pIC50 (second compound 0.0316 µM): < 5.00
pIC50 (second compound 0.1 µM): < 5.00
pIC50 (second compound 0.316 µM): < 5.00
pIC50 (second compound 1 µM): < 5.00
pIC50 (second compound 3.16 µM): 5.25
pIC50 (second compound 10 µM): 6.57
viability, T/C [4]: 108%
viability, T/C [37]: 105%
viability, T/C [6]: 108%
viability, T/C [38]: 106%
viability, T/C [39]: 108%
viability, T/C [40]: 87.5%
viability, T/C [10]: 103%
viability, T/C [41]: 102%
viability, T/C [12]: 106%
viability, T/C [42]: 106%
viability, T/C [43]: 107%
viability, T/C [44]: 88%
viability, T/C [16]: 98.1%
viability, T/C [45]: 103%
viability, T/C [18]: 107%
viability, T/C [46]: 109%
viability, T/C [47]: 107%
viability, T/C [48]: 86.6%
viability, T/C [22]: 103%
viability, T/C [49]: 99.5%
viability, T/C [24]: 107%
viability, T/C [50]: 108%
viability, T/C [51]: 103%
viability, T/C [52]: 70.5%
viability, T/C [28]: 102%
viability, T/C [53]: 104%
viability, T/C [30]: 107%
viability, T/C [54]: 102%
viability, T/C [55]: 87.1%
viability, T/C [56]: 14.1%
viability, T/C [34]: 98.7%
viability, T/C [57]: 79%
viability, T/C [36]: 46%
viability, T/C [58]: 16%
viability, T/C [59]: 5.65%
viability, T/C [60]: 1.75%
